Drawing on PubChem BioAssay (NCI), this text covers GI50 and TGI for 9 compounds.

Some test systems named below: HOP-62 NSCLC; HCT-116 colon; SK-MEL-28 melanoma; ACHN renal; K-562 leukemia; LOX IMVI melanoma; SF-539 CNS; SW-620 colon; TK-10 renal; SF-295 CNS.
Holding throughout (assay): NCI-60 cell line screen, 48 h

“And” between values parts separate entries of the source, which are not always exact repeats. Equal entries are not always repeated.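 1) Cells in 96-well plates. 2) Compound, 48 h, 5 concentrations. 3) Linear interpolation between surrounding doses. 4) Unreached endpoint = highest concentration. GI50 = concentration required for 50% inhibition of growth. The concentration for full growth arrest is given as TGI.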

With `O=C(Oc1ccc([N+](=O)[O-])cc1)N1CCN(Cc2cccc(Oc3ccccc3)c2)CC1`, the GI50 with HOP-62 NSCLC was more than 100 µM; in the test on HCT-116 colon it was 44.9 µM; in the test on SK-MEL-28 melanoma it was more than 100 µM; in the test on ACHN renal it was more than 100 µM; in the test on K-562 leukemia, 34.1 µM; in the test on LOX IMVI melanoma, more than 82.6 µM. Further, the GI50 with SF-539 CNS was more than 100 µM; in the test on SW-620 colon, more than 100 µM; with TK-10 renal, more than 75.9 µM; in the test on SF-295 CNS, 62.9 µM. The TGI in the test on HOP-62 NSCLC, in the test on HCT-116 colon, in the test on SK-MEL-28 melanoma, in the test with ACHN renal, in the test on K-562 leukemia and in the test on LOX IMVI melanoma was more than 100 µM each time. Moreover, the TGI with SF-539 CNS, in the test with SW-620 colon, in the test with TK-10 renal and in the test with SF-295 CNS was more than 100 µM in each case.

As to `COc1cc2c3c(n(CCN)c(=O)c2cc1OC)-c1cc2c(cc1C3=O)OCO2`, the GI50 with HOP-62 NSCLC was 0.122 µM; in the test with HCT-116 colon, 0.0521 µM; in the test with SK-MEL-28 melanoma it was 1.55 µM; with ACHN renal, 0.275 µM; in the test on K-562 leukemia, 0.0969 µM; in the test with LOX IMVI melanoma, 0.235 µM. Besides, the GI50 with SF-539 CNS was 0.766 µM; in the test with SW-620 colon, 0.0383 µM; in the test with TK-10 renal, 1.79 µM; with SF-295 CNS, less than 0.0352 µM. Also, the TGI was 0.774 µM with HOP-62 NSCLC; 3.44 µM in the test with SK-MEL-28 melanoma; more than 100 µM in the test with K-562 leukemia; 2.74 µM with SF-539 CNS; 2.29 µM in the test on SW-620 colon; 3.63 µM with TK-10 renal. The same compound returned a TGI in the test on SF-295 CNS of 2.09 µM.

With `CC(=O)NNc1nc(C)c(C(/C=C/c2ccc(Cl)cc2)=N\NS(=O)(=O)c2ccc(C)cc2)s1`, the TGI with HOP-62 NSCLC, in the test on HCT-116 colon, in the test with SK-MEL-28 melanoma, with ACHN renal, in the test on K-562 leukemia and with LOX IMVI melanoma was more than 100 µM throughout. The TGI with SF-539 CNS, with SW-620 colon, in the test with TK-10 renal and in the test with SF-295 CNS was more than 100 µM each time.

For `Cc1ccc(NC(=O)CC(=O)n2nc(-c3ccccc3)c(N=Nc3ccc(Cl)cc3)c2-c2ccccc2)cc1`, the TGI in the test on HOP-62 NSCLC was more than 100 µM; in the test with HCT-116 colon it was 33.8 µM; in the test on SK-MEL-28 melanoma, more than 100 µM; in the test with ACHN renal, more than 100 µM; in the test with K-562 leukemia, 47.1 µM; in the test on LOX IMVI melanoma, 29.9 µM. Moreover, the TGI in the test on SF-539 CNS is 85.6 µM; in the test on SW-620 colon, 31 µM; in the test with TK-10 renal it was 72 µM; in the test on SF-295 CNS, more than 100 µM.

Turning to `CN(C)CCNC(=O)c1cccc2cc3ccccc3nc12`, the GI50 is 0.961 µM with HOP-62 NSCLC; 0.531 µM in the test with HCT-116 colon; 1.97 µM in the test on SK-MEL-28 melanoma; 0.437 µM with ACHN renal; 1.88 µM in the test with K-562 leukemia; 0.802 µM in the test with LOX IMVI melanoma. Besides, the GI50 in the test with SF-539 CNS is 1.78 µM; with SW-620 colon it was 0.775 µM; in the test on TK-10 renal, 1.23 µM; with SF-295 CNS it was 1.26 µM. Besides, the TGI in the test with HOP-62 NSCLC was determined as 6.68 µM; with HCT-116 colon, 4.75 µM; in the test with SK-MEL-28 melanoma, 4.41 µM; with ACHN renal, 2.85 µM; in the test with K-562 leukemia, 18.1 µM; in the test on LOX IMVI melanoma, 3.48 µM. In addition, the TGI in the test on SF-539 CNS was 8.21 µM; in the test on SW-620 colon it was 3.17 µM; with TK-10 renal it was 4.08 µM; in the test on SF-295 CNS, 4.62 µM.

With `CC(=O)OCC1OC(OC2CC3C(C)(C)C(OC(C)=O)CC[C@]3(C)C3CCC45CC4(CC[C@H]5C(C)CC(O)C4OC4(C)C)[C@]23C)C(O)C(O)C1O` (some centres not stated), the GI50 in the test on HOP-62 NSCLC is 2.39 µM; with HCT-116 colon, 2.14 µM; in the test with SK-MEL-28 melanoma it was 2.99 µM; in the test on ACHN renal, 3.44 µM; in the test with LOX IMVI melanoma, 1.25 µM; with SF-539 CNS, 2.47 µM. In addition, the GI50 in the test with SW-620 colon was 3.46 µM; in the test on SF-295 CNS it was 3.34 µM. Moreover, the TGI was 12.6 µM and 5.37 µM in the test on HOP-62 NSCLC; 3.46 µM and 4.42 µM in the test on HCT-116 colon; 7.11 µM and 9.32 µM with SK-MEL-28 melanoma; 7.28 µM and 11.7 µM with ACHN renal; 2.22 µM in the test with K-562 leukemia; 3.72 µM and 2.58 µM with LOX IMVI melanoma. Moreover, the TGI in the test with SF-539 CNS is 8.92 µM and 6.62 µM; in the test on SW-620 colon it was 9.98 µM and 11.3 µM; in the test on TK-10 renal it was 9.79 µM and 12.7 µM; with SF-295 CNS, 5.5 µM and 11 µM.

Turning to `Cn1ccc(=Nc2ccc(NC(=O)c3ccc(N=c4ccn(C)c5ccc([N+](=O)[O-])cc45)cc3)cc2)cc1`, the GI50 with HOP-62 NSCLC is 8.25 µM; in the test on HCT-116 colon it was 3.76 µM; in the test with SK-MEL-28 melanoma, 22.9 µM; with ACHN renal it was more than 100 µM; in the test on K-562 leukemia, 6.75 µM; in the test with LOX IMVI melanoma, 5.37 µM. Also, the GI50 with SF-539 CNS is 6.21 µM; with SW-620 colon, 8.6 µM; with TK-10 renal it was more than 100 µM; with SF-295 CNS, 12.8 µM. Moreover, the TGI with HOP-62 NSCLC is more than 100 µM; in the test with HCT-116 colon, more than 100 µM; with SK-MEL-28 melanoma it was 92.3 µM; with ACHN renal, more than 100 µM; with K-562 leukemia, more than 100 µM; with LOX IMVI melanoma it was more than 100 µM. Further, the TGI in the test with SF-539 CNS was 73.2 µM; with SW-620 colon, more than 100 µM; in the test on TK-10 renal, more than 100 µM; in the test on SF-295 CNS it was 72.6 µM.

As for `Nc1ccn([C@H]2C[C@@H](O)[C@@H](CO)S2)c(=O)n1`, the GI50 was more than 32 µM in the test with HOP-62 NSCLC; 14.1 µM in the test on HCT-116 colon; more than 100 µM with SK-MEL-28 melanoma; 8.65 µM in the test with ACHN renal; more than 100 µM with K-562 leukemia; more than 100 µM in the test with LOX IMVI melanoma. The GI50 with SF-539 CNS was more than 100 µM; with SW-620 colon, more than 70.1 µM; in the test on TK-10 renal, more than 100 µM; with SF-295 CNS, more than 100 µM. For the same compound, the TGI in the test with HOP-62 NSCLC, in the test with HCT-116 colon, in the test on SK-MEL-28 melanoma, in the test with ACHN renal, in the test on K-562 leukemia and in the test on LOX IMVI melanoma was more than 100 µM throughout. Further, the TGI in the test with SF-539 CNS, with SW-620 colon, in the test with TK-10 renal and in the test on SF-295 CNS was more than 100 µM each time.

For `Cc1cc(O)c2c(c1)C(=O)c1cc(O)cc(O)c1C2=O`, the TGI with HOP-62 NSCLC is 44.3 µM; with HCT-116 colon, more than 58.9 µM; in the test on SK-MEL-28 melanoma, more than 82.9 µM; in the test on ACHN renal, 73.3 µM; with K-562 leukemia, more than 100 µM; with LOX IMVI melanoma, 47.3 µM. Moreover, the TGI with SF-539 CNS is more than 100 µM; in the test on SW-620 colon it was more than 100 µM; with TK-10 renal it was more than 81.1 µM; in the test on SF-295 CNS, more than 83.1 µM. For the same compound, the GI50 with K-562 leukemia was 28 µM; with SF-539 CNS, 54.2 µM.
